Test results published in patent US9624247B2, “Pyrazolo-pyrrolidin-4-one derivatives as bet inhibitors and their use in the treatment of disease” (NOVARTIS AG, priority 2013, dated 2017).
Like-named read-outs stand apart in the source and are kept apart here.

How the values were obtained:
BRD4 (His-Brd4(44-477)) = BRD4 (His-Brd4(44-477)) (Homo sapiens (Human), UniProt O60885); experiment: TR-FRET in-vitro binding assay for BRD4; details: acetyl-histone H4 peptide
Method: (§1) TR-FRET In-Vitro Binding Assays for BRD2, BRD3, and BRD4:
(§2) All assays were performed in 384 well microtiter plates. Each assay plate contained 8-point serial dilutions for 40 test compounds, plus 16 high- and 16 low controls. Liquid handling and incubation steps were done on an Innovadyne Nanodrop Express equipped with a robotic arm (Thermo CatX, Perkin Elmer/Caliper Twister II) and an incubator (Liconic STX40, Thermo Cytomat 2C450). The assay plates were prepared by addition of 50 nl per well of compound solution in 90% DMSO HummingBird nanodispenser (Zinsser Analytic). The assay was started by stepwise addition of 4.5 μl per well of bromo domain protein (50 mM HEPES, pH 7.5, 0.005% Tween20, 0.1% BSA, 50 mM NaCl, 45 nM His-Brd2(60-472) or 45 nM His-Brd3(20-477) or 45 nM His-Brd4(44-477) all proteins produced in-house) and 4.5 μl per well of peptide solution (50 mM HEPES, pH 7.5, 0.005% Tween20, 0.1% BSA, 50 mM NaCl, 60 nM acetyl-histone H4 (AcK 5, 8, 12, 16) (Biosyntan GmbH)). Reactions were incubated at 30° C. for 35 minutes. […] After 35 minutes incubation at 30° C., plates were measured in a Perkin Elmer EnVision multilabel reader. Concentrations causing 50% inhibition (IC50 values) were determined from percent inhibition values at different compound concentrations by non-linear regression analysis.
(§3) Preparation of Compound Dilutions
(§4) Test compounds were dissolved in DMSO (10 mM) and transferred into 1.4 mL flat bottom or V-shaped Matrix tubes carrying a unique 2D matrix. The stock solutions were stored at […] if not used immediately. For the test procedure the vials were defrosted and identified by a scanner whereby a working sheet was generated that guided the subsequent working steps. Compound dilutions were made in 96 well plates. This format enabled the assay of maximally 40 individual test compounds at 8 concentrations (single points) including 4 reference compounds, if desired (known BET inhibitors from the prior art, for this and other assays of the type disclosed herein). The dilution protocol included the production of “pre-dilution plates”, “master plates” and “assay plates”.
(§5) Pre-dilution plates: 96 polypropylene well plates were used as pre-dilution plates. A total of 4 pre-dilution plates were prepared including 10 test compounds each on the plate positions A1-A10, one standard compound at A11 and one DMSO control at A12. All dilution steps were done on a HamiltonSTAR robot.
(§6) Master plates: 30 μL of individual compound dilutions including standard compound and controls of the 4 “pre-dilution plates” were transferred into a 384 “master plate” including the following concentrations 10000, 3003, 1000, 300, 100, 30, 10 and 3 μM, respectively in 90% of DMSO.
(§7) Assay plates: Identical “assay plates” were then prepared by pipetting 50 nL each of compound dilutions of the “master plates” into 384-well “assay plates” by means of a HummingBird 384-channel dispenser. These plates were used directly for the assay which was performed in a total volume of 13.55 μL. This led to a final compound concentration of 37, 11, 3.7, 1.1, 0.37, 0.11, 0.037 and 0.011 μM and a final DMSO concentration of 0.37% in the assay.

BRD2 (His-Brd2(60-472)) = BRD2 (His-Brd2(60-472)) (Homo sapiens (Human), UniProt P25440); experiment: TR-FRET in-vitro binding assay for BRD2; details: acetyl-histone H4 peptide
Sequence of BRD2 (His-Brd2(60-472)) (P25440 60-472): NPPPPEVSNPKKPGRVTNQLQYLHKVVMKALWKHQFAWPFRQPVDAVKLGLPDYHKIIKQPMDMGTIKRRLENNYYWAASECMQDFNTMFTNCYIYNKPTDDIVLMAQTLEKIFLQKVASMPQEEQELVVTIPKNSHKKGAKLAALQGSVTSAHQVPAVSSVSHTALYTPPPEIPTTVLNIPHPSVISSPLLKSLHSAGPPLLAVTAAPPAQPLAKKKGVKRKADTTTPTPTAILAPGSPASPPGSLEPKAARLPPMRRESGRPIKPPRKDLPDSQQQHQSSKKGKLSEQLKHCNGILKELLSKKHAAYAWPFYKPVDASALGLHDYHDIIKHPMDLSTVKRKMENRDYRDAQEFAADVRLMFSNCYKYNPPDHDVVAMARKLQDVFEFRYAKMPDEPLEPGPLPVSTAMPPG
Method: as §1, §2, §3, §4, §5, §6, §7

BRD3 (His-Brd3(20-477)) = BRD3 (His-Brd3(20-477)) (Homo sapiens (Human), UniProt Q15059); experiment: TR-FRET in-vitro binding assay for BRD3; details: acetyl-histone H4 peptide
Sequence of BRD3 (His-Brd3(20-477)) (Q15059 20-477): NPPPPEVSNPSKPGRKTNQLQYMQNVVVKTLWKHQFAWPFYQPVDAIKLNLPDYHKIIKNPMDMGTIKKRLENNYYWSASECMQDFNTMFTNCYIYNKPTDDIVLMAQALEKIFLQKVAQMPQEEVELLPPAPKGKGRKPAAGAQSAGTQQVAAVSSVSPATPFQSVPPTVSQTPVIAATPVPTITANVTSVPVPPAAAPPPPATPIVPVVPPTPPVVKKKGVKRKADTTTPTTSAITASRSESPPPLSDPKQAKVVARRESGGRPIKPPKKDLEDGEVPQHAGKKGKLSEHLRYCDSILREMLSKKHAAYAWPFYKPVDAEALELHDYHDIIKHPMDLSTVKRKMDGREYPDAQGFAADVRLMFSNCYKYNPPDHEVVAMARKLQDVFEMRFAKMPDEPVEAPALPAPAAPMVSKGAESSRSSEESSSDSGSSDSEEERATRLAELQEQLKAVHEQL
Method: as §1
All assays were performed in 384 well microtiter plates. Each assay plate contained 8-point serial dilutions for 40 test compounds, plus 16 high- and 16 low controls. Liquid handling and incubation steps were done on an Innovadyne Nanodrop Express equipped with a robotic arm (Thermo CatX, Perkin Elmer/Caliper Twister II) and an incubator (Liconic STX40, Thermo Cytomat 2C450). The assay plates were prepared by addition of 50 nl per well of compound solution in 90% DMSO HummingBird nanodispenser (Zinsser Analytic). […] Reactions were incubated at 30° C. for 35 minutes. […] After 35 minutes incubation at 30° C., plates were measured in a Perkin Elmer EnVision multilabel reader.
as §3, §4, §5
(§8) These plates were used directly for the assay which was performed in a total volume of 13.55 μL.

[1] = biological target: CREBBP bromodomain (His-CREBBP(1081-1197)) (Homo sapiens (Human), UniProt Q92793); experiment: AlphaScreen in-vitro binding assay for CREBBP
Sequence of CREBBP bromodomain (His-CREBBP(1081-1197)) (Q92793 1081-1197): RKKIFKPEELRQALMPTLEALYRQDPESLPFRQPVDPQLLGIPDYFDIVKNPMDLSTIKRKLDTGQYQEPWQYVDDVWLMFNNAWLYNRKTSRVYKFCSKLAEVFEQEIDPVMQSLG
Method: AlphaScreen In-Vitro Binding Assay for CREBBP
In order to assess bromodomain selectivity, we set up a binding assay using the bromodomain encoded by the CREBBP gene. […] Reactions were incubated at 30° C. for 35 minutes. Subsequently 4.5 μl per well detection mix (50 mM HEPES, pH 7.5, 0.005% Tween20, 0.02% BSA, 150 mM NaCl, 45 μg/ml Ni-chelate acceptor beads, 45 μg/ml streptavidin-donor beads) (Perkin Elmer)) were added. After 60 minutes incubation at room temperature, plates were measured in a Perkin Elmer EnVision multilabel reader. IC50 values were determined from percent inhibition values at different compound concentrations by non-linear regression analysis.
as §3, §4, §5, §8

MV-4-11 cells = experiment: Cell growth inhibition assay (CellTiter-Glo), MV-4-11; assay type: cell-based, human; details: MV-4-11, 4 days; for GI50: Homo sapiens, MV4-11, 96 h, half-maximal growth inhibition; for MV-4-11 TGI: total growth inhibition
Method: (§9) Cell Growth Inhibition Assay
(§10) The human leukemia cell lines MV-4-11, THP-1 and K-562 were employed to characterize the effect of BET inhibitors on cellular proliferation and viability. Cells were obtained from the American Type Culture Collection (ATCC) and cultured at 37° C. in a humidified 5% CO2 incubator in the following media: MV-4-11: DMEM high glucose (Animed #1-26F01-I), 10% FCS (Animed #2-01F26-I), 4 mM L-Glutamine (Animed #5-10K50), 1 mM Sodium Pyruvate (Animed #G03625P), lx Penicillin-Streptomycin (Animed #F12478P); K-562: Iscove's MEM (Animed #1-28F16-I), 10% FCS (Animed #2-01F26-I), 4 mM L-Glutamine (Animed #5-10K50), 1× Penicillin-Streptomycin (Animed #F12478P); THP-1: RPMI-1640 (Animed #1-41F01-I), 10% FCS (Animed #2-01F26-I), 2 mM L-Glutamine (Animed #5-10K50), 10 mM HEPES (Animed #5-31F100), 1 mM Sodium Pyruvate (Animed #G03625P), 1× Penicillin-Streptomycin (Animed #F12478P). The AML lines MV-4-11 and THP-1 are very sensitive to BET inhibitors and show massive cell death upon BET inhibition (Zuber et al., Nature, 478 (2011), 524-8). Compound-mediated suppression of cell proliferation/viability was assessed by quantification of cellular ATP levels using the CellTiter-Glo (CTG) reagent (Promega). Briefly, cells were seeded in 20 μl fresh medium into 384-well plates, followed by addition of 5 μl medium containing compound dilutions at 5-fold their final intended concentration. Dose-response effects were assessed by 3-fold serial dilutions of the test compound, starting at 10 μM. Following incubation of the cells for 4 days at 37° C. and 5% CO2, the effect of inhibitors on cell viability was quantified following addition of 20 μl CTG and luminescence quantification (integration time: 100 ms) as per vendor manual, using a correspondingly equipped Tecan M200 multi-mode platereader (TECAN, Switzerland). For data analysis, the assay background value determined in wells containing medium, but no cells, was subtracted from all data points. To enable differentiation of cytotoxic from cytostatic compounds, the number of viable cells is assessed relative to that observed at the time of compound addition using a separate cell plate (day 0). The effect of a particular test compound concentration on cell proliferation/viability is expressed as percentage of the background- and day 0-corrected luminescence reading obtained for cells treated with vehicle only (DMSO, 0.1% final concentration), which is set as 100%, whereas that luminescence reading for wells containing medium is set as −100%. Compound concentrations leading to half-maximal (IC50) and total growth inhibition (TGI) were determined using standard four parameter curve fitting.

THP-1 cells = experiment: Cell growth inhibition assay (CellTiter-Glo), THP-1; assay type: cell-based, human; details: THP-1, 4 days; for GI50: Homo sapiens, 96 h, half-maximal growth inhibition; for THP-1 TGI: total growth inhibition
Method: as §9, §10

K-562 cells = experiment: Cell growth inhibition assay (CellTiter-Glo), K-562; assay type: cell-based, human; details: K-562, 4 days; for GI50: Homo sapiens, K562, 96 h, half-maximal growth inhibition; for K-562 TGI: total growth inhibition
Method: as §9, §10

| Structure (SMILES) | IC50 (BRD4 (His-Brd4(44-477))) [nM] | IC50 (BRD2 (His-Brd2(60-472))) [nM] | IC50 (BRD3 (His-Brd3(20-477))) [nM] | IC50 [1] [µM] | GI50 (MV-4-11 cells) [nM] | MV-4-11 TGI (MV-4-11 cells) [µM] | GI50 (THP-1 cells) [nM] | THP-1 TGI (THP-1 cells) [µM] | GI50 (K-562 cells) [nM] | K-562 TGI (K-562 cells) [µM] | IC50 ([1]; AlphaScreen, acetyl-histone H4 peptide, read-out: CREBBP IC50) [µM] |
| --- | --- | --- | --- | --- | --- | --- | --- | --- | --- | --- | --- |
| COc1ncccc1-c1n[nH]c2c1C(=O)N(c1cc(C)c3nnc(C)n3c1)C2c1ccc(Cl)cc1 (centres unmarked) [Example 10, 6-(4-chlorophenyl)-5-(3,8-dimethyl-[1,2,4]triazolo[4,3-a]pyridin-6-yl)-3-(2-methoxypyridin-3-yl)-5,6-dihydropyrrolo[3,4-c]pyrazol-4(1H)-one] | 30 | 48 | 45 | > 37 | 34.5 | 0.0643 | 60.4 | 0.1368 | 135 | >10 | – |
| COc1ncccc1-c1n[nH]c2c1C(=O)N(c1cc(C)c3nnc(C)n3c1)[C@@H]2c1ccc(Cl)cc1 [Example 11, (R)-6-(4-chlorophenyl)-5-(3,8-dimethyl-[1,2,4]triazolo[4,3-a]pyridin-6-yl)-3-(2-methoxypyridin-3-yl)-5,6-dihydropyrrolo[3,4-c]pyrazol-4(1H)-one] | 42 | 46 | 37 | – | 9.55 | 0.0174 | 28.2 | 0.0428 | 98.4 | >10 | > 37 |
